According to patent publication US9156811B2 (priority 2008, dated 2015):
Read-outs that look alike come from different tables or passages of the source.

Assays:
[1] = biological target: T. brucei N-myristoyl transferase (Trypanosoma brucei brucei (strain 927/4 GUTat10.1), UniProt Q388H8); test: biochemical; format: biochemical
[2] = tested on: Trypanosome (T. brucei brucei); test: In-vitro antitrypanosomal efficacy assay (cell growth, resazurin); format: cell-based
human NMT-1 = human NMT-1 (Homo sapiens (Human), UniProt P30419); test: NMT enzyme inhibition scintillation proximity assay, human NMT-1; format: biochemical; settings: HuNMT-1
[3] = value with no enzyme tag in the cell, taken as T. brucei NMT, read-out: IC50 (μM) NMT Enzyme
[4] = T. brucei NMT, value without parentheses, read-out: IC50 (μM) NMT Enzyme (T. brucei NMT)
[5] = T. brucei brucei, blood stream form, variant 221

Sequence of human NMT-1 (P30419 whole entry): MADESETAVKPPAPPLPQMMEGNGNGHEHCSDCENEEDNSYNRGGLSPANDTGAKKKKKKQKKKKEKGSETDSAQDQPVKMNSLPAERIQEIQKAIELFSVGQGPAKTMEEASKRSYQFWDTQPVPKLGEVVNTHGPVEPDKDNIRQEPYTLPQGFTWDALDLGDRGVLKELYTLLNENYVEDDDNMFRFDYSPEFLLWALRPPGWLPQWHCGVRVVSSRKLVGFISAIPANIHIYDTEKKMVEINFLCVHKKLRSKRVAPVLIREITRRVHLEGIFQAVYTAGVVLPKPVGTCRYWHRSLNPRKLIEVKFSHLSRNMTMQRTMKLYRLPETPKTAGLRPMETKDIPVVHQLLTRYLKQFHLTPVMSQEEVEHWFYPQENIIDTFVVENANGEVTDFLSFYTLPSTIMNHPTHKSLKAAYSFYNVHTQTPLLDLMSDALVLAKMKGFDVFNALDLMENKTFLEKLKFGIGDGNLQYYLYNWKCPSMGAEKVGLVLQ
Sequence of T. brucei N-myristoyl transferase (Q388H8 1-446): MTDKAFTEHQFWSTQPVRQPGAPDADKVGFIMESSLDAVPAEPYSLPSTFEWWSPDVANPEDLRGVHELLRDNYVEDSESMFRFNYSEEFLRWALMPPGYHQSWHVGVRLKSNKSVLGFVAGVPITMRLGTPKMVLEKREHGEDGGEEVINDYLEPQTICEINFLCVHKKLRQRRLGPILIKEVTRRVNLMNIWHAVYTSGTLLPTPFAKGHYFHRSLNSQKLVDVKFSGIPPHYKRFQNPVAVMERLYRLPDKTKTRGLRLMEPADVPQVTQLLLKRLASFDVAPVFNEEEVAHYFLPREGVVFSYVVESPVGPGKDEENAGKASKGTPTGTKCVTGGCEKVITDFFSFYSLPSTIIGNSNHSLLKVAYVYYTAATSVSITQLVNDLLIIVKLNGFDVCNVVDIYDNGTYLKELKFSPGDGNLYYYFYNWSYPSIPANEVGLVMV

IC50 [1, 3] [µM] | IC50 (human NMT-1) [µM] | IC50 [1, 4] [µM] | Compound | ED50 (μM) T. brucei ([2]; T. brucei cell growth) [µM] | IC50 ([1]; read-out: IC50 (μM) NMT Enzyme) [µM] | ED50 (μM) T. brucei [2, 5] [µM]
1 |  |  | CNCCNc1cc(-c2cc(Cl)c([S+](=O)([O-])Nc3c(C)nn(C)c3C)c(Cl)c2)ccn1 [DDD86297, 2,6-Dichloro-4-[2-(2-methylamino-ethylamino)-pyridin-4-yl]-N-(1,3,6-trimethyl-1H-pyrazol-4-yl)-benzenesulfonamide] | >1 |  | 
1 |  |  | Cc1nn(C)c(C)c1N[S+](=O)([O-])c1ccc(NCCN2CCN(C(C)C)CC2)nc1 [DDD86298] | >1 |  | 
1 |  |  | Cc1nn(C)c(C)c1NS(=O)(=O)c1c(Cl)cc(-c2ccnc(NCCNc3ccccn3)c2)cc1Cl [DDD86302, 2,6-Dichloro-4-{2-[2-(pyridin-2-ylamino)-ethylamino]pyridin-4-yl}-N-(1,3,5-trimethyl-1 H-pyrazol-4-yl)-benzenesulfonamide] | >1 |  | 
1 |  |  | Cc1nn(C)c(C)c1N[S+](=O)([O-])c1ccc(NCCN2CCN(C)CC2c2ccccc2)nc1 (stereo not drawn) [DDD86304] | >1 |  | 
1 |  |  | Cc1nn(C)c(C)c1NS(=O)(=O)c1c(Cl)cc(-c2ccnc(NCCCn3ccnc3)c2)cc1Cl [DDD86308, 2,6-Dichloro-4-[2-(3-imidazol-1-yl-propylamino)-pyridin-4-yl]-N-(1,3,5-trimethyl-1H-pyrazol-4-yl)-benzenesulfonamide] | >1 |  | 
1 |  |  | Cc1nn(C)c(C)c1N[S+](=O)([O-])c1ccc(NCCN2CCN(C(=O)OC(C)(C)C)CC2)nc1 [DDD86310] | >1 |  | 
1 |  |  | CC(=O)c1cccc(Nc2ccc([S+](=O)([O-])Nc3c(C)nn(C)c3C)cn2)c1 [DDD86311] | >1 |  | 
5.9 |  |  | Cc1nn(C)c(C)c1N[S+](=O)([O-])c1c(Cl)cc(C#CCN2CCCCC2)cc1Cl [DDD86476] | >1 |  | 
0.05 |  |  | Cc1nn(C)c(C)c1N(CCCO)[S+](=O)([O-])c1ccc(-c2ccnc(N3CCNCC3)c2)cc1 [DDD87755, N-(3-Hydroxy-propyl)-4-(2-piperazin-1-yl-pyridin-4-yl)-N-(1,3,5-trimethyl-1H-pyrazol-4-yl)-benzenesulfonamide] | 0.98 |  | 
 |  |  | Cc1nn(C)c(C)c1NS(=O)(=O)c1ccc(-c2ccnc(N3CCNC(c4ccccc4)C3)c2)cc1 (stereo not drawn) [DDD87756, 4-[2-(3-Phenyl-piperazin-1-yl)-pyridin-4-yl]-N-(1,3,5-trimethyl-1H-pyrazol-4-yl)-benzenesulfonamide] | >1 | 0.76 | 
34.4 |  |  | Cc1nn(C)c(C)c1N[S+](=O)([O-])c1ccc(N2CCC(N3CCN(Cc4ccccc4)CC3)C2)nc1 (stereo not drawn) [DDD87760] | >1 |  | 
0.11 |  |  | Cc1nn(C)c(C)c1N[S+](=O)([O-])c1ccc(N2CCC(N3CCNCC3)C2)nc1 (stereo not drawn) [DDD88008] | 18.0 |  | 
1.1 |  |  | Cc1noc(C)c1N[S+](=O)([O-])c1ccc(CCCN2CCN(C)CC2)cc1 [DDD88190] | 31.0 |  | 
12.7 |  |  | Cc1cc(Br)ccc1[S+](=O)([O-])Nc1c(C)nn(C)c1C [DDD88316] | >10 |  | 
10 |  |  | Cc1nn(C)c(C)c1N[S+](=O)([O-])c1ccc(Br)cc1F [DDD88318] | >10 |  | 
0.045 |  |  | Cc1ccnc(C)c1N[S+](=O)([O-])c1c(Cl)cc(-c2ccnc(N3CCNCC3)c2)cc1Cl [DDD88319] | 0.69 |  | 
44.1 | > 100 |  | Cc1nn(C)cc1N[S+](=O)([O-])c1ccc(Br)cc1 [DDD88320] | >10 |  | 
> 100 | > 100 |  | Cn1cc(N[S+](=O)([O-])c2ccc(Br)cc2)cn1 [DDD88321] | >10 |  | 
0.182 | 1.5 |  | Cc1ccncc1N[S+](=O)([O-])c1c(Cl)cc(-c2ccnc(N3CCNCC3)c2)cc1Cl [DDD88322] | 1.93 |  | 
0.004 |  |  | Cc1nn(C)c(C)c1N[S+](=O)([O-])c1c(F)cc(-c2ccnc(N3CCNCC3)c2)cc1F [DDD88323] | 0.005 |  | 
75.4 | 3.36 |  | Cc1nn(C)cc1N[S+](=O)([O-])c1c(Cl)cc(Br)cc1Cl [DDD88324] | >10 |  | 
> 100 | > 100 |  | Cn1cc(N[S+](=O)([O-])c2c(Cl)cc(Br)cc2Cl)cn1 [DDD88325] | >10 |  | 
> 100 | > 100 |  | Cc1c(N[S+](=O)([O-])c2ccc(Br)cc2)cnn1C [DDD88326] | >10 |  | 
0.61 | 6.3 |  | Cc1nn(C)c(C)c1N[S+](=O)([O-])c1ccc2nc(NC3CCNCC3)ccc2c1 [DDD88523] | >1 |  | 
0.054 |  |  | Cc1nn(C)c(C)c1N[S+](=O)([O-])c1ccc(-c2cccc(CN)c2)cc1 [DDD88560] | 2.15 |  | 

IC50 [1, 3] [µM] | IC50 (human NMT-1) [µM] | IC50 [1, 4] [µM] | Compound | ED50 (μM) T. brucei ([2]; T. brucei cell growth) [µM] | IC50 ([1]; read-out: IC50 (μM) NMT Enzyme) [µM] | ED50 (μM) T. brucei [2, 5] [µM]
0.92 | 3.7 |  | CCCN(CCC)Cc1cccc(-c2cc(Cl)c([S+](=O)([O-])N(C)c3c(C)nn(C)c3C)c(Cl)c2)c1 [DDD88636] | 1.89 |  | 
> 1 | > 1 |  | Cc1nn(C)c(C)c1N[S+](=O)([O-])c1cccc(CCCN2CCN(C)CC2)c1 [DDD88640] | 18.7 |  | 
0.39 | 4.48 |  | Cc1nn(C)c(C)c1N(C)[S+](=O)([O-])c1c(Cl)cc(-c2cccc(CNC3CCCCC3)c2)cc1Cl [DDD88642] | 0.89 |  | 
0.027 |  |  | Cc1nn(C)c(C)c1N[S+](=O)([O-])c1ccc(CCCN2CCN(C)CC2)cc1Cl [DDD90058] | 0.20 |  | 
0.054 |  |  | Cc1nn(C)c(C)c1N[S+](=O)([O-])c1cc(F)c(CCCN2CCN(C)CC2)cc1F [DDD90059] | 0.48 |  | 
0.006 |  |  | Cc1c(N[S+](=O)([O-])c2c(Cl)cc(CCCN3CCN(C)CC3)cc2Cl)c(CC(C)C)nn1C [DDD90060] | 0.02 |  | 
0.024 |  |  | Cc1nn(C)c(C)c1N[S+](=O)([O-])c1ccc(-c2cccc(CCN(C)C)c2)cc1 [DDD90106] | 0.251 |  | 
0.004 |  |  | Cc1nn(C)c(C)c1N[S+](=O)([O-])c1ccc(-c2cccc(CC3CCN(C)CC3)c2)cc1 [DDD90107] | 0.040 |  | 
0.26 | 6.1 |  | Cc1nn(C)c(C)c1N(C)[S+](=O)([O-])c1ccc(CCCN2CCN(C)CC2)cc1 [DDD90115] | 2.21 |  | 
0.034 |  |  | Cc1c(N[S+](=O)([O-])c2ccc(CCCN3CCN(C)CC3)cc2)c(CC(C)C)nn1C [DDD90147] | 0.20 |  | 
0.068 |  |  | Cc1c(N[S+](=O)([O-])c2ccc(-c3cccc(CN4CCN(C)CC4)c3)cc2)c(CC(C)C)nn1C [DDD99736] | 0.41 |  | 
0.003 |  |  | Cc1c(N[S+](=O)([O-])c2c(Cl)cc(CCCC3CCN(C)CC3)cc2Cl)c(CC(C)C)nn1C [DDD99743] | 0.005 |  | 
0.008 |  |  | CCN(CC)Cc1cccc(-c2cc(Cl)c([S+](=O)([O-])Nc3c(CC(C)C)nn(C)c3C)c(Cl)c2)c1 [DDD99747] | 0.067 |  | 
0.007 |  |  | CCN(CC)Cc1cccc(-c2ccc([S+](=O)([O-])Nc3c(CC(C)C)nn(C)c3C)c(Cl)c2)c1 [DDD99763] | 0.053 |  | 
0.014 |  |  | Cc1cc(CN(C)C)cc(-c2ccc([S+](=O)([O-])Nc3c(CC(C)C)nn(C)c3C)cc2)c1 [DDD99817] | 0.047 |  | 
0.008 |  |  | Cc1cc([S+](=O)([O-])Nc2c(CC(C)C)nn(C)c2C)ccc1-c1cccc(CN(C)C)c1 [DDD99819] | 0.043 |  | 
0.006 |  |  | Cc1c(N[S+](=O)([O-])c2ccc(-c3cccc(CN(C)C)c3)c(C(F)(F)F)c2)c(CC(C)C)nn1C [DDD99822] | 0.051 |  | 
 |  | 0.006 | Cc1c(N[S+](=O)([O-])c2ccc(-c3cccc(CN(C)C)c3)c(Cl)c2)c(CC(C)C)nn1C [DDD99823] |  |  | 0.041
 |  | 0.007 | Cc1c(N[S+](=O)([O-])c2ccc(-c3cc(CN(C)C)ccc3F)cc2)c(CC(C)C)nn1C [DDD99827] |  |  | 0.019
 |  | 0.003 | Cc1c(N[S+](=O)([O-])c2ccc(-c3cccc(CC4CCNCC4)c3)cc2)c(CC(C)C)nn1C [DDD100094] |  |  | 0.008
 |  | 0.005 | CCNCc1cccc(-c2ccc([S+](=O)([O-])Nc3c(CC(C)C)nn(C)c3C)cc2)c1 [DDD100095] |  |  | 0.055
 |  | 0.006 | Cc1c(N[S+](=O)([O-])c2ccc(CCCCC3CCNCC3)cc2)c(CC(C)C)nn1C [DDD100158] |  |  | 0.048
 |  | 0.023 | COCCNCc1cccc(-c2ccc([S+](=O)([O-])Nc3c(CC(C)C)nn(C)c3C)cc2)c1 [DDD100797] |  |  | 0.492
 |  | 0.006 | CCCNCc1cccc(-c2ccc([S+](=O)([O-])Nc3c(CC(C)C)nn(C)c3C)cc2)c1 [DDD100800] |  |  | 0.052

Compound | IC50 [1, 3] [µM] | IC50 (human NMT-1) [µM] | IC50 [1, 4] [µM] | ED50 (μM) T. brucei ([2]; T. brucei cell growth) [µM] | IC50 ([1]; read-out: IC50 (μM) NMT Enzyme) [µM] | ED50 (μM) T. brucei [2, 5] [µM]
Cc1nn(C)c(C)c1NS(=O)(=O)c1c(Cl)cc(-c2cccc3c2CCNC3)cc1Cl [DDD87762] | 2.6 |  |  | >1 |  | 
Cc1c(N[S+](=O)([O-])c2c(Cl)cc(Br)cc2Cl)cnn1C [DDD88315] | 20 |  |  | >10 |  | 
Cc1c(N[S+](=O)([O-])c2ccc(CCCCC3CCN(C)CC3)cc2)c(CC(C)C)nn1C [DDD100162] |  |  | 0.01 |  |  | 0.093
Cc1c(N[S+](=O)([O-])c2ccc(CCCOC3CCN(C)CC3)cc2)c(CC(C)C)nn1C [DDD100168] |  |  | 0.009 |  |  | 0.110
